Reference: patent US20250304623A1, “PEPTIDES FOR INTRACELLULAR DELIVERY” (UNIVERSIDADE DE SANTIAGO DE COMPOSTELA, priority 2022, published 2025)
Starred links: 1 amine or outer side, 2 acyl side, 3 side chain; linkers in the order of their positions; H or OH if unused. Residues, ends and D or L forms follow the SMILES beside them. Groups on a side chain read outwards from the residue. *: point of attachment. Glutaryl = O=C(CCCC(=O)[*:2])[*:1]; NHNH2 = NN*

Tests used:
Type in all cases: cell-based
[1] = tested on: HepG2 cells expressing EGFP; assay: EGFP-targeting siRNA delivery (GFP silencing vs siMOCK), HepG2
Protocol: (§1) To generate an EGFP expressing HeLa cell line, HeLa cells were transfected with EGFP pDNA (pEGFP-C1, Clontech) and stable transfectants were selected with 400 μg/mL of G-418 (Millipore). Green clones were selected by epifluorescence microscopy and tested for EGFP expression stability through several passages. […] All other EGFP-expressing cell lines were obtained in a similar way from parent non-EGFP-expressing cell lines.
Cells expressing EGFP were seeded in a 96 well plate the day before the experiment at a concentration of 50,000 cell/mL (100 μL/w) in DMEM+10% FBS+1% Gln-Abt. For robotic library screening, the delivery of an EGFP-targeting siRNA (EGFP: enhanced green fluorescent protein, Ambion® Silencer® GFP Positive Control siRNA (siGFP) (AM4626)) in six different cell lines expressing EGFP was performed. […] The mixture was shaken for 30 min at room temperature (rt) before the addition to the cells. The cell medium was aspirated, and cells were washed twice with PBS. Finally, 50 μL of the solution of siRNA/amphiphile complexes were added to the cells and incubated for 4 h. After transfection, the medium was replaced by 100 μL of fresh DMEM supplemented with 10% FBS. The fluorescence knockdown was quantified after 72 h in a plate reader, by comparison with cells transfected with a non-targeting siRNA control (siMOCK, Silencer™ Negative Control No. 1 siRNA (siMOCK) (AM4611)). EGFP knockdown was compared with Lipofectamine® RNAiMAX silencing efficiency (30-60% depending on cell line, defined with a numeric value in the below tables). All experiments were done in triplicate.
(§2) Tables 1-7: RLuc (pDNA) or EGFP (mRNA) expression levels were normalized to Lipofectamine reagents (value=1) and expressed as fold-times signal increase. In the case of siRNA, the siRNA treated cells fluorescence was compared with siMOCK control fluorescence, while Cas9-RNP mediated knockout was measured against the fluorescence of untreated cells. In both siRNA and Cas9-RNP, values are expressed as % fluorescence reduction. Amphiphile concentration was 5 μM in all cases. All experiments were performed in triplicate.
Tables 20-25 show the mean (triplicates) percentage of GFP-silencing, accounted by fluorescence intensity decrease relative to a non-targeting siRNA (siMOCK) control, measured after the transfection of siRNA by different amphiphiles at different concentrations in a variety of cell lines. Background values, accounted by untreated control cells, were subtracted for processing.

[2] = tested on: HCT116 cells expressing EGFP; assay: Cas9-RNP delivery against EGFP (gene editing, plate reader), HCT116
Protocol: as §1
Cells expressing EGFP were seeded in a 96 well plate the day before the experiment at a concentration of 50,000 cell/mL (100 μL/w) in DMEM+10% FBS+1% Gln-Abt. For robotic library screening, the delivery of Cas9-RNP against EGFP (RNP designed to knock-out the gene encoding for the enhanced green fluorescent protein (EGFP)) was performed. For RNP assembly, 9.2 μL of crRNA and 9.2 μL of tracrRNA were mixed in 211.6 μL of Nuclease-Free Duplex Buffer (IDT), incubated for 5 min at 95° C. and slowly cooled at rt (see I. Lostalé-Seijo, et al. Peptide/Cas9 nanostructures for ribonucleoprotein cell membrane transport and gene edition, Chem. Sci., 2017). Cas9 protein was dissolved in DMEM at a final concentration of 4 μM and equal volumes of the RNA complex and Cas9 were mixed and incubated for 5 min at rt. 75 μL of the corresponding amphiphile concentrations were added to 5 μL of RNP at 2 μM. The mixture was shaken for 30 min at room temperature before the addition to the cells. The cell medium was aspirated, and cells were washed twice with PBS. Cells were covered with 30 μL of DMEM and 20 μL of the RNP/amphiphile complexes were added to the cells (final peptide concentrations=2.5, 5 and 10 μM; final Cas9-RNP concentration=50 nM) and incubated for 4 h. After the incubation, the medium was replaced by 100 μL of fresh DMEM supplemented with 10% FBS. The total EGFP fluorescence was quantified after 72 h in a plate reader (FIG. 2, Table 1 (right) and Table 6). All experiments were done in triplicate. […]
(§3) Tables 26-31 show the mean (triplicates) percentage of gene editing, accounted by GFP fluorescence intensity decrease (% of reduction), measured after the transfection of Cas9-RNP by different amphiphiles at different concentrations in a variety of cell lines. Background values, accounted by untreated control cells, were subtracted for processing.

[3] = tested on: Hela cells expressing EGFP; assay: Cas9-RNP delivery against EGFP (gene editing, plate reader), HeLa; conditions: for % GFP silencing due to gene editing (Cas9-RNP): HeLa
Protocol: as §1
Cells expressing EGFP were seeded in a 96 well plate the day before the experiment at a concentration of 50,000 cell/mL (100 μL/w) in DMEM+10% FBS+1% Gln-Abt. For robotic library screening, the delivery of Cas9-RNP against EGFP (RNP designed to knock-out the gene encoding for the enhanced green fluorescent protein (EGFP)) was performed. For RNP assembly, 9.2 μL of crRNA and 9.2 μL of tracrRNA were mixed in 211.6 μL of Nuclease-Free Duplex Buffer (IDT), incubated for 5 min at 95° C. and slowly cooled at rt (see I. Lostalé-Seijo, et al. Peptide/Cas9 nanostructures for ribonucleoprotein cell membrane transport and gene edition, Chem. Sci., 2017). Cas9 protein was dissolved in DMEM at a final concentration of 4 μM and equal volumes of the RNA complex and Cas9 were mixed and incubated for 5 min at rt. 75 μL of the corresponding amphiphile concentrations were added to 5 μL of RNP at 2 μM. The mixture was shaken for 30 min at room temperature before the addition to the cells. The cell medium was aspirated, and cells were washed twice with PBS. Cells were covered with 30 μL of DMEM and 20 μL of the RNP/amphiphile complexes were added to the cells (final peptide concentrations=2.5, 5 and 10 μM; final Cas9-RNP concentration=50 nM) and incubated for 4 h. After the incubation, the medium was replaced by 100 μL of fresh DMEM supplemented with 10% FBS. The total EGFP fluorescence was quantified after 72 h in a plate reader (FIG. 2, Table 1 (right) and Table 6). All experiments were done in triplicate.
as §2, §3

[4] = Petroselinyl, 10 μM, Hela cells

Molecule | percentage of gene editing, GFP fluorescence intensity decrease (% of reduction) ([2]; Dodecanal, 15 μM) [%] | percentage of gene editing, GFP fluorescence intensity decrease (% of reduction) ([2]; Myristoleyl, 15 μM) [%] | percentage of gene editing, GFP fluorescence intensity decrease (% of reduction) ([2]; Oleyl, 5 μM) [%] | percentage of gene editing, GFP fluorescence intensity decrease (% of reduction) ([2]; Palmitoleyl, 5 μM) [%] | percentage of gene editing, GFP fluorescence intensity decrease (% of reduction) ([2]; Palmitoleyl, 10 μM) [%] | percentage of gene editing, GFP fluorescence intensity decrease (% of reduction) ([3]; Dodecanal, 10 μM, HeLa cells) [%] | percentage of gene editing, GFP fluorescence intensity decrease (% of reduction) ([3]; Myristoleyl, 5 μM, HeLa cells) [%] | percentage of gene editing, GFP fluorescence intensity decrease (% of reduction) ([3]; Myristoleyl, 10 μM, HeLa cells) [%] | percentage of gene editing, GFP fluorescence intensity decrease (% of reduction) ([3]; Oleyl, 5 μM, HeLa cells) [%] | percentage of gene editing, GFP fluorescence intensity decrease (% of reduction) ([3]; Oleyl, 10 μM, HeLa cells) [%] | percentage of gene editing, GFP fluorescence intensity decrease (% of reduction) ([3]; Palmitoleyl, 5 μM, HeLa cells) [%] | percentage of gene editing, GFP fluorescence intensity decrease (% of reduction) ([3]; Palmitoleyl, 10 μM, HeLa cells) [%] | percentage of gene editing, GFP fluorescence intensity decrease (% of reduction) ([3]; Palmitoleyl, 15 μM, Hela cells) [%] | percentage of gene editing, GFP fluorescence intensity decrease (% of reduction) ([3]; Petroselinyl, 5 μM, HeLa cells) [%] | percentage of gene editing, GFP fluorescence intensity decrease (% of reduction) [3, 4] [%] | percentage of GFP-silencing relative to siMOCK ([1]; Palmitoleyl, 10 μM) [%] | percentage of GFP-silencing relative to siMOCK ([1]; Petroselinyl, 5 μM) [%] | percentage of gene editing, GFP fluorescence intensity decrease (% of reduction) ([2]; Dodecanal, 5 μM) [%] | percentage of gene editing, GFP fluorescence intensity decrease (% of reduction) ([2]; Palmitoleyl, 15 μM) [%] | also measured
CC(=O)N[C@@H](CCCNC(=N)N)C(=O)N[C@@H](CCCCNC(=O)CCCC(=O)NN)C(=O)N[C@@H](Cc1c[nH]cn1)C(=O)N[C@@H](CCCNC(=N)N)C(=O)N[C@@H](CCCCNC(=O)CCCC(=O)NN)C(=O)N[C@@H](CCCCNC(=O)CCCC(=O)NN)C(=O)N[C@@H](Cc1c[nH]cn1)C(N)=O [7.3(L-H), Ac-RK*HRK*K*H-NH2] (Ac-RK([Glutaryl-NHNH2])HRK([Glutaryl-NHNH2])K([Glutaryl-NHNH2])H-NH2) | 3 | 26 | −5 | 28 | 22 | −8 | 39 | 22 | 16 | 13 | 55 | 28 | 17 | 46 | 14 | – | – | – | – | percentage of GFP-silencing relative to siMOCK ([1]; Myristoleyl, 15 μM): −13%; percentage of GFP-silencing relative to siMOCK ([1]; Oleyl, 10 μM): −9%; percentage of GFP-silencing relative to siMOCK ([1]; Palmitoleyl, 15 μM): 10%; percentage of GFP-silencing relative to siMOCK ([1]; Petroselinyl, 15 μM): 1%; percentage of gene editing, GFP fluorescence intensity decrease (% of reduction) ([2]; Oleyl, 10 μM): 5%; percentage of gene editing, GFP fluorescence intensity decrease (% of reduction) ([3]; Dodecanal, 15 μM, Hela cells): −21%; percentage of gene editing, GFP fluorescence intensity decrease (% of reduction) ([3]; Myristoleyl, 15 μM, Hela cells): 18%; percentage of gene editing, GFP fluorescence intensity decrease (% of reduction) ([3]; Oleyl, 15 μM, Hela cells): 22%
Ac-RHLK*RHK*RRLK*RH-NH2 (Ac-RHLKRHKRRLKRH-NH2; not fully specified (residues 4, 7, 11); printed as Ac-RHLK*RHK*RRLK*RH-NH2; also: linker on K* not given here) [13(3His)] | – | 0 | – | −9 | – | – | 18 | – | – | – | – | – | – | – | – | 6 | −1 | −33 | 14 | percentage of GFP-silencing relative to siMOCK ([1]; Myristoleyl, 10 μM): 8%; percentage of GFP-silencing relative to siMOCK ([1]; Petroselinyl, 10 μM): 19%; percentage of gene editing, GFP fluorescence intensity decrease (% of reduction) ([2]; Petroselinyl, 5 μM): 26%
Ac-RHLK*RLK*RRLK*RL-NH2 (Ac-RHLKRLKRRLKRL-NH2; not fully specified (residues 4, 7, 11); printed as Ac-RHLK*RLK*RRLK*RL-NH2; also: linker on K* not given here) [13(Arg-His)] | 16 | 29 | 5 | 30 | 22 | 78 | 48 | 85 | 46 | 73 | 48 | 73 | 78 | 23 | 69 | 30 | 21 | 4 | 9 | percentage of gene editing, GFP fluorescence intensity decrease (% of reduction) ([2]; Dodecanal, 10 μM): 5%; percentage of gene editing, GFP fluorescence intensity decrease (% of reduction) ([2]; Myristoleyl, 5 μM): −7%; percentage of gene editing, GFP fluorescence intensity decrease (% of reduction) ([2]; Petroselinyl, 10 μM): 6%; percentage of gene editing, GFP fluorescence intensity decrease (% of reduction) ([3]; Dodecanal, 5 μM, Hela cells): 37%; % GFP silencing due to gene editing (Cas9-RNP) ([3]; 5 μM, Ole tail): 73%; % GFP silencing due to gene editing (Cas9-RNP) ([3]; 5 μM, Pal tail): 73%; percentage of gene editing, GFP fluorescence intensity decrease (% of reduction) ([3]; Petroselinyl, 15 μM, Hela cells): 80%
